# Test results from EP4582413A1, “ARYLTETRAHYDROPYRIDINE COMPOUND AND PEST CONTROL AGENT” (priority 2022, dated 2024).
# Assays:
# [1] = test system: green peach aphids (Myzus persicae); assay: Insecticidal test for green peach aphids; type: in vivo; details: 500 ppm chemical solution sprinkled (2.5 mg/cm^2), wingless imagoes on leaf disc, six days, 25°C; for death rate: 8640 min; for mortality at 500 µg/mL: Myzus persicae, foliar, 144 h, read-out: death rate
# Method: Wet absorbent cotton was laid on each glass dish having an inner diameter of 3 cm, a Chinese olive leaf cut into a circle having a diameter of 3 cm was placed thereon, and four wingless green peach aphids (Myzus persicae) imagoes were released. After a day, a 10% by mass emulsion of the presently invented compound prepared according to the above formulation example for an emulsion was diluted with water containing a spreader to prepare a chemical solution having a concentration of 500 ppm. The chemical solution prepared was sprinkled (2.5 mg/cm^2) with a rotary tower sprinkler, and the dishes were capped and accommodated in a thermostatic room at 25°C. […] The test was carried out in duplicate.
# Trichostrongylus axei = assay: Effect test for Trichostrongylus axei; type: in vivo; design: concentration or dose not given beside the values; details: test chemical solution B added to eggs in 96-well plate, unhatched eggs and inactive larvae counted 4 days after addition, 25°C, relative to untreated plot
# Method: Agar medium with 1% potato dextrose was aliquoted into 60-µl portions in a 96-well plate, and 30 µl of sterilized water containing Trichostrongylus axei eggs and a freeze-dried Escherichia coli OP50 strain (five eggs, 10 µg/10 µl Escherichia coli) was added to each well. From above, 10 µl of test chemical solution B of the presently invented compound was added to each well, and the plate was left to stand under dark conditions at 25°C.
Structure (SMILES),efficacy (%) (Trichostrongylus axei),further results
Cc1cccc(-c2cc(C3CC(O)=C(C(=O)Nc4cccc(S(C)(=O)=O)c4)C(=O)N3)cnc2Cl)c1 (stereo not shown) [2-285],–,death rate [1]: ≥ 90%
Cc1ccc(NC(=O)C2=C(O)CC(c3nc(-c4ncccn4)no3)NC2=O)nc1 (stereo not shown) [3-167],–,death rate [1]: ≥ 90%
O=C(Nc1ccc(F)cc1)C1=C(O)CC(c2cncc(-c3cccc(C(F)(F)F)c3)c2)NC1=O (stereo not shown) [2-003],–,mortality at 500 µg/mL [1]: ≥ 90%
O=C(Nc1ccc(F)cn1)C1=C(O)CC(c2nc(-c3ccncc3F)no2)NC1=O (stereo not shown) [3-064],≥ 50,–
O=C(Nc1ccc(Cl)nc1)C1=C(O)CC(c2nc(-c3ccnc(F)c3)no2)NC1=O (stereo not shown) [3-060],≥ 50,–
O=C(Nc1ccc(C(F)(F)F)cn1)C1=C(O)CC(c2cnc(Cl)c(-c3cncc(F)c3)c2)NC1=O (stereo not shown) [2-056],≥ 50,–
Cc1cc(NC(=O)C2=C(O)CC(c3cnc(Cl)c(-c4ccc(F)nc4)c3)NC2=O)cnc1Cl (stereo not shown) [2-129],≥ 50,–
Cc1cccc(-c2cc(C3CC(O)=C(C(=O)Nc4ccn(C)n4)C(=O)N3)cnc2Cl)c1 (stereo not shown) [2-256],≥ 50,–
O=C(Nc1ncc(Cl)nc1Cl)C1=C(O)CC(c2cnc(Cl)c(-c3ccc(F)nc3)c2)NC1=O (stereo not shown) [2-131],≥ 50,–
O=C(Nc1cnc(Cl)c(Cl)c1)C1=C(O)CC(c2cnc(Cl)c(-c3ccc(F)nc3)c2)NC1=O (stereo not shown) [2-126],≥ 50,–
O=C(Nc1ccc(F)cn1)C1=C(O)CC(c2cnc(C(F)(F)F)c(-c3ccc(F)nc3)c2)NC1=O (stereo not shown) [2-167],≥ 50,–
O=C(Nc1ccc(Br)c(F)n1)C1=C(O)CC(c2cnc(Cl)c(-c3ccc(F)nc3)c2)NC1=O (stereo not shown) [2-132],≥ 50,–
Cc1cccc(-c2cc(C3CC(O)=C(C(=O)Nc4ccc(C#N)nc4)C(=O)N3)cnc2Cl)c1 (stereo not shown) [2-266],≥ 50,–
O=C(Nc1ccc(F)nc1)C1=C(O)CC(c2nc(-c3ccc(F)cc3)no2)NC1=O (stereo not shown) [3-082],≥ 50,–
O=C(Nc1cccnn1)C1=C(O)CC(c2cnc(Cl)c(-c3ccc(F)nc3)c2)NC1=O (stereo not shown) [2-289],≥ 50,–
O=C(Nc1ccc(C(F)(F)F)nc1)C1=C(O)CC(c2cnc(Cl)c(-c3ccc(F)cc3)c2)NC1=O (stereo not shown) [2-234],≥ 50,–
O=C(Nc1ccc(Cl)nc1)C1=C(O)CC(c2cnc(Cl)c(-c3ccc(F)cc3)c2)NC1=O (stereo not shown) [2-221],≥ 50,–
O=C(Nc1ccc(F)c(F)c1)C1=C(O)CC(c2nc(-c3ccc(F)nc3)no2)NC1=O (stereo not shown) [3-274],≥ 50,–
CON=Cc1cccc(-c2noc(C3CC(O)=C(C(=O)Nc4ccc(F)cn4)C(=O)N3)n2)c1 (stereo not shown) [3-124],≥ 50,–
CN(C)c1ccc(-c2noc(C3CC(O)=C(C(=O)Nc4ccc(F)cc4)C(=O)N3)n2)cc1 (stereo not shown) [3-117],–,mortality at 500 µg/mL [1]: ≥ 90%
Cc1cc(NC(=O)C2=C(O)CC(c3nc(-c4ccnc(F)c4)no3)NC2=O)on1 (stereo not shown) [3-121],≥ 50,–
O=C(Nc1ccc(F)cn1)C1=C(O)CC(c2nc(-c3ccc(F)c(Cl)c3)no2)NC1=O (stereo not shown) [3-141],≥ 50,–
O=C(Nc1ccc(F)cn1)C1=C(O)CC(c2nc(-c3cncs3)no2)NC1=O (stereo not shown) [3-097],≥ 50,–

Structure (SMILES),efficacy (%) (Trichostrongylus axei),further results
Cc1ccc(NC(=O)C2=C(O)CC(c3cnc(Cl)c(-c4cccc(C)c4)c3)NC2=O)nc1 (stereo not shown) [2-255],≥ 50,–
Cc1cccc(-c2cc(C3CC(O)=C(C(=O)Nc4ncccc4C)C(=O)N3)cnc2Cl)c1 (stereo not shown) [2-272],≥ 50,–
O=C(Nc1nc[nH]n1)C1=C(O)CC(c2cnc(Cl)c(-c3ccc(F)cc3)c2)NC1=O (stereo not shown) [2-291],≥ 50,–
Cc1ccc(NC(=O)C2=C(O)CC(c3nc(-c4ccnc(F)c4)no3)NC2=O)c(C)c1 (stereo not shown) [3-266],–,death rate [1]: ≥ 90%
Cc1cccc(-c2cc(C3CC(O)=C(C(=O)Nc4ccc(Cl)nc4)C(=O)N3)cnc2Cl)c1 (stereo not shown) [2-254],≥ 50,–
COc1ccc(-c2cc(C3CC(O)=C(C(=O)Nc4ccc(F)cn4)C(=O)N3)cnc2C(F)(F)F)cc1 (stereo not shown) [2-245],≥ 50,–
Cn1nc(Cl)c(-c2noc(C3CC(O)=C(C(=O)Nc4ccc(F)cn4)C(=O)N3)n2)c1Cl (stereo not shown) [3-114],≥ 50,–
Cc1ccc(-c2noc(C3CC(O)=C(C(=O)Nc4ccc(F)cn4)C(=O)N3)n2)cn1 (stereo not shown) [3-087],≥ 50,–
O=C(Nc1ccc(C(F)(F)F)cn1)C1=C(O)CC(c2cnc(C(F)(F)F)c(-c3ccc(F)nc3)c2)NC1=O (stereo not shown) [2-179],≥ 50,–
CN(C)c1ccc(-c2noc(C3CC(O)=C(C(=O)Nc4ccc(F)cn4)C(=O)N3)n2)cc1 (stereo not shown) [3-118],–,death rate [1]: ≥ 90%
O=C(Nc1ccc(Cl)cn1)C1=C(O)CC(c2nc(-c3ccc(F)nc3)no2)NC1=O (stereo not shown) [3-102],≥ 50,–
O=C(Nc1ccc(F)cn1)C1=C(O)CC(c2nc(-c3cc(F)c(F)cc3F)no2)NC1=O (stereo not shown) [3-139],≥ 50,–
O=C(Nc1cc(F)ccn1)C1=C(O)CC(c2nc(-c3ccc(F)cc3F)no2)NC1=O (stereo not shown) [3-199],≥ 50,–
Cc1ccc(NC(=O)C2=C(O)CC(c3nc(-c4ccc(F)cc4)no3)NC2=O)nc1 (stereo not shown) [3-127],≥ 50,–
O=C(Nc1ccc(Br)cn1)C1=C(O)CC(c2cnc(C(F)(F)F)c(-c3ccc(F)nc3)c2)NC1=O (stereo not shown) [2-177],≥ 50,–
Cc1cccc(-c2cc(C3CC(O)=C(C(=O)Nc4ccc(F)cn4)C(=O)N3)cnc2Cl)c1 (stereo not shown) [2-252],≥ 50,–
O=C(Nc1ccc(F)cn1)C1=C(O)CC(c2cnc(Cl)c(-c3ccnc(F)c3)c2)NC1=O (stereo not shown) [2-115],≥ 50,–
O=C(Nc1ccc(Cl)cn1)C1=C(O)CC(c2cnc(C(F)(F)F)c(-c3ccc(F)nc3)c2)NC1=O (stereo not shown) [2-169],≥ 50,–
Cn1ccc(-c2noc(C3CC(O)=C(C(=O)Nc4ccc(F)cn4)C(=O)N3)n2)n1 (stereo not shown) [3-085],≥ 50,–
O=C(Nc1ccc(F)cn1)C1=C(O)CC(c2nc(-c3ccsc3)no2)NC1=O (stereo not shown) [3-110],≥ 50,–
CSc1cccc(NC(=O)C2=C(O)CC(c3cnc(Cl)c(-c4cccc(C)c4)c3)NC2=O)c1 (stereo not shown) [2-284],–,death rate [1]: ≥ 90%
O=C(Nc1ccc(F)cn1)C1=C(O)CC(c2cnc(C(F)(F)F)c(-c3cccnc3)c2)NC1=O (stereo not shown) [2-251],≥ 50,–
N#Cc1ccc(NC(=O)C2=C(O)CC(c3cnc(Cl)c(-c4ccc(F)nc4)c3)NC2=O)nc1 (stereo not shown) [2-088],≥ 50,–

Structure (SMILES),efficacy (%) (Trichostrongylus axei),further results
O=C(Nc1ccc(SC(F)(F)F)cc1)C1=C(O)CC(c2cnc(Cl)c(-c3ccc(F)nc3)c2)NC1=O (stereo not shown) [2-038],≥ 50,–
Cc1ccc(NC(=O)C2=C(O)CC(c3cnc(Cl)c(-c4cccc(C)c4)c3)NC2=O)nc1 (stereo not shown) [2-273],≥ 50,–
Cc1cccc(-c2cc(C3CC(O)=C(C(=O)Nc4cc(C#N)ccn4)C(=O)N3)cnc2Cl)c1 (stereo not shown) [2-262],≥ 50,–
Cn1ccc(NC(=O)C2=C(O)CC(c3nc(-c4ccc(F)cc4F)no3)NC2=O)n1 (stereo not shown) [3-154],≥ 50,–
Cn1nc(Cl)c(-c2noc(C3CC(O)=C(C(=O)Nc4ccccn4)C(=O)N3)n2)c1Cl (stereo not shown) [3-170],≥ 50,–
O=C(Nc1ccc(Cl)nn1)C1=C(O)CC(c2cnc(Cl)c(-c3ccc(Cl)nc3)c2)NC1=O (stereo not shown) [2-046],–,death rate [1]: ≥ 90%
CCCOc1ccc(-c2cncc(C3CC(O)=C(C(=O)Nc4ccc(F)cc4)C(=O)N3)c2)cn1 (stereo not shown) [2-007],–,death rate [1]: ≥ 90%
O=C(Nc1ncc(Cl)cc1F)C1=C(O)CC(c2cnc(Cl)c(-c3ccc(F)cc3)c2)NC1=O (stereo not shown) [2-232],≥ 50,–
O=C(Nc1ncc(Cl)cc1F)C1=C(O)CC(c2nc(-c3ccc(F)nc3)no2)NC1=O (stereo not shown) [3-271],≥ 50,–
O=C(Nc1ccc(Cl)nc1Cl)C1=C(O)CC(c2cnc(Cl)c(-c3ccc(F)nc3)c2)NC1=O (stereo not shown) [2-128],≥ 50,–
COc1ccccc1-c1cc(C2CC(O)=C(C(=O)Nc3ccc(F)cn3)C(=O)N2)cnc1C(F)(F)F (stereo not shown) [2-250],≥ 50,–
Cc1ccc(NC(=O)C2=C(O)CC(c3nc(-c4cccc(F)c4)no3)NC2=O)nc1 (stereo not shown) [3-128],≥ 50,–
COC(=O)c1ccc(NC(=O)C2=C(O)CC(c3cnc(Cl)c(-c4ccc(F)cc4)c3)NC2=O)cc1 (stereo not shown) [2-292],–,mortality at 500 µg/mL [1]: ≥ 90%
O=C(Nc1ccc(Cl)cn1)C1=C(O)CC(c2cnc(Cl)c(-c3ccc(F)cc3)c2)NC1=O (stereo not shown) [2-220],≥ 50,–
O=C(Nc1ccc(Cl)cn1)C1=C(O)CC(c2nc(-c3cccc(F)c3)no2)NC1=O (stereo not shown) [3-180],≥ 50,–
O=C(Nc1ccc(F)cn1)C1=C(O)CC(c2nc(-c3csc(Br)c3)no2)NC1=O (stereo not shown) [3-086],≥ 50,–
COc1ccc(-c2noc(C3CC(O)=C(C(=O)Nc4ccc(F)cn4)C(=O)N3)n2)cc1 (stereo not shown) [3-137],≥ 50,–
O=C(Nc1ccc(F)cn1)C1=C(O)CC(c2cnc(C(F)(F)F)c(-c3ccc(F)cc3)c2)NC1=O (stereo not shown) [2-244],≥ 50,–
Cc1cnc(NC(=O)C2=C(O)CC(c3cnc(Cl)c(-c4ccc(F)nc4)c3)NC2=O)nc1 (stereo not shown) [2-120],≥ 50,–
Cc1cc(Cl)cnc1NC(=O)C1=C(O)CC(c2cnc(Cl)c(-c3ccc(F)nc3)c2)NC1=O (stereo not shown) [2-130],≥ 50,–
O=C(Nc1ccc(F)cn1)C1=C(O)CC(c2nc(-c3cncc(F)c3)no2)NC1=O (stereo not shown) [3-083],≥ 50,–
